Measurements: US20110003382A1, “USE OF CORTICOSTERONE FOR INCREASING EGG ANTIBODY” (WISCONSIN ALUMNI RESEARCH FOUNDATION, priority 2009, published 2011)

What was measured:
[1] = after 1 day of CORT at 20 mg/kg diet in drinking water; cited from earlier work
[2] = test system: Single Comb White Leghorn hens; experiment: Peripheral blood mononuclear cell (PBMC) counts; format: in vivo
Protocol: Peripheral Blood Mononuclear Cell Counts. […] Whole blood (2-3 ml) was collected from wing vein into heparin-containing tubes (Becton Dickinson, Sparks, Md.). In 15-ml conical tubes, blood (2 ml) was layered on an equal volume (2 ml) of 1077 Histopaque (Sigma-Aldrich), and centrifuged at 400×g for 30 minutes at room temperature. Mononuclear cells were collected from the gradient interface, and re-suspended in PBS to the original blood volume (2 ml) or the sample. PBMCs were further diluted (1:16) in PBS, mixed with an equal volume of 0.4% trypan blue solution (Sigma-Aldrich), and counted, microscopically, with the aid of a hemacytometer.

[3] = test system: laying hens; conditions: cited from earlier work
[4] = test system: Single Comb White Leghorn hens; experiment: Egg production (laying frequency); format: in vivo
Protocol: (§1) Measurement of body weight and egg production. […] Initial body weight of adult laying hens, 26- to 60-weeks of age, was reported when measured at the beginning of experiments. Data were expressed as a percentage of initial body weight (% initial BW) to determine effects of CORT on change in body weight. Eggs produced were recorded daily for each hen. Laying frequency (or egg production) of each hen during each 7 day period measured, was obtained by dividing the total number of eggs laid by 7.

[5] = test system: Single Comb White Leghorn hens; experiment: Anti-PLA2 antibody titer in serum of immunized hens by ELISA; format: in vivo; conditions: weeks 2 to 3 after primary immunization
Excerpt: (§2) In all Examples, Single Comb White Leghorn hens (SCWL) used were transported as pullets (18- to 22-weeks of age) from S&R Farms (Whitewater, Wis.) to University of Wisconsin—Madison Poultry Research Laboratory. Hens were individually housed in cages with raised bottom floors for at least four weeks before being assigned to an Example, and were 26- to 60-weeks of age at the beginning of experiments. Hens were fed, ad libitum, a standard corn-soybean meal based laying hen diet formulated to meet nutritional requirements. Housing was maintained under an automated lighting schedule with 16:8-h light-dark cycle. All procedures involving animals were approved by Animal Care Committee at University of Wisconsin, Madison.
The antigen selected for comparing the antibody response of hens was a 13 kDa soluble protein antigen, phospholipase A2 (PLA2) purified from porcine pancreas (Novozyme, Bagsvaerd, Denmark; greater than 90% purity based on SDS-PAGE). PLA2 was used because of its commercial relevance, and its previous use as a model antigen for studying hen antibody response (Trott, et al., 2008, “Additions of killed whole cell bacteria preparations to Freund complete adjuvant alter laying hen antibody response to soluble protein antigen,” Poult. Sci., 87(5):912-917). […]
Anti-PLA2 antibody content of egg yolk and serum samples were measured by an ELISA (Trott, et al., 2008). […]

[6] = test system: Single Comb White Leghorn hens; experiment: Body weight change (% initial BW); format: in vivo
Protocol: as §1

[7] = test system: chicken; conditions: feeding CORT 20-80 mg/kg diet; cited from earlier work
[8] = test system: mice; conditions: exogenous corticosterone; cited from earlier work
[9] = test system: Single Comb White Leghorn hens; experiment: Anti-PLA2 antibody titer in egg yolk of immunized hens by ELISA; format: in vivo
Excerpt: as §2
The antigen selected for comparing the antibody response of hens was a 13 kDa soluble protein antigen, phospholipase A2 (PLA2) purified from porcine pancreas (Novozyme, Bagsvaerd, Denmark; greater than 90% purity based on SDS-PAGE). PLA2 was used because of its commercial relevance, and its previous use as a model antigen for studying hen antibody response (Trott, et al., 2008, “Additions of killed whole cell bacteria preparations to Freund complete adjuvant alter laying hen antibody response to soluble protein antigen,” Poult. Sci., 87(5):912-917). Hens were immunized according to methods described by Trott, et al. (2008). The primary immunization for each hen was a water-in-oil emulsion (50:50) that consisted of 3 mg PLA2 dissolved in 0.5 mL phosphate buffer saline (PBS), and emulsified with 0.5 mL of Freund Complete Adjuvant (FCA; DIFCO, Sparks, Md.). Seven days after the primary immunization, each hen received a booster injection containing 3 mg PLA2 dissolved in 0.5 mL PBS and emulsified with Freund Incomplete Adjuvant (FIA; DIFCO). All injections (primary and booster) were administered i.m. into each breast and thigh of hen (1 ml/hen at 0.25 mL/injection site). In all experiments, immunization of hens (primary and booster) occurred at approximately 10 A.M. to eliminate the potential confounding effect of endogenous CORT levels fluctuating due to circadian rhythms.
Based on previous experimentation (Trott et al., 2008; Schade et al., 2001, “Chicken egg yolk antibodies: Production and application,” Springer, Heidelberg, Germany) week three after primary immunization represented peak antibody titer in egg yolk; therefore, eggs were collected once per week beginning on week three and continuing until week eight or ten for repeated testing of anti-PLA2 antibody content using an ELISA (Trott, et al., 2008).
Anti-PLA2 antibody content of egg yolk and serum samples were measured by an ELISA (Trott, et al., 2008). A 96-well Nunc-Immuno Plate with MaxiSorp surface (Thermo Fischer Scientific, Waltham, Mass.) was coated overnight (100 μl per well) with PLA2 (Sigma Aldrich, St. Louis, Mo.) at a concentration of 10 μg/ml in 50 mM sodium bicarbonate. After washing, the plate was blocked (175 μl per well) for at least 1 hour with PBS containing 1% albumin from bovine serum albumin (BSA; Sigma Aldrich). Egg antibody was water-extracted from liquid egg yolk samples. Liquid egg yolk samples […] were pipetted with a positive displacement pipette (Rainin, Oakland, Calif.) and extracted overnight with 1.8 ml acidified PBS (pH 5). The extraction mixture was centrifuged at 1,500×g for 10 minutes, and the supernate was further diluted to 1:16,000 with PBS containing 1% BSA (pH 7). Serum samples were diluted 1:16,000 in PBS containing 1% BSA. In addition to the weekly egg yolk or serum samples, an ‘in-lab standard’ was applied to each ELISA plate. The standard applied to each plate consisted of a 2-fold serial dilution from 1:2,000 to 1:64,000 of water-extracted egg yolks from hens immunized against PLA2 in a previous trial. After coating, blocking, and washing the plate, duplicate samples and ‘in-lab standard’ (100 μl/well) were incubated for 1 hour on the plate followed by washing (6×). […]

[10] = test system: broilers; conditions: dietary CORT 30 mg/kg diet for 1 week; cited from earlier work
[11] = Example 3: CORT 5 days, week 1 after diet administration
[12] = Example 4: CORT 6 days, weeks 4 to 10 after primary immunization

decrease in egg production between week 1 before and week 1 after diet administration ([4]; Example 3: CORT 5 days, p=0.004): 21%
overall difference in egg production vs control-fed hens ([4]; Example 3: CORT 5 days, p=0.57): no overall difference
egg production, overall ([4]; Example 3: CORT 5 days, throughout the Example): 73%
egg production [4, 11]: 50%
egg production less than control-fed hens ([4]; Example 3: CORT 5 days, week 1 after diet administration, p=0.005): 34%
egg production ([4]; Example 3: CORT 5 days, week 2): 62%
egg production less than control-fed hens ([4]; Example 3: CORT 5 days, week 2, p=0.014): 29%
overall egg production less than control-fed hens ([4]; Example 4: CORT 6 days): 35%
egg production suppressed vs control-fed hens ([4]; Example 4: CORT 6 days, week 1 after diet administration): 50%
egg production suppressed vs control-fed hens ([4]; Example 4: CORT 6 days, week 2 after diet administration): 100%
egg production suppressed vs control-fed hens ([4]; Example 4: CORT 6 days, week 3 after diet administration): 80%
overall egg production ([4]; Example 4: CORT 6 days, weeks 0 to 10): 54%
egg production [4, 12]: 69%
egg production lower than control-fed hens [4, 12]: 17%
overall egg production ([4]; Example 5: CORT 9 days): 39%
overall egg production less than control-fed hens ([4]; Example 5: CORT 9 days): 31%
egg production suppressed vs control-fed hens ([4]; Example 5: CORT 9 days, week 4 after diet administration): 80%
egg production ([4]; Example 5: CORT 9 days, week 5 after diet administration): 45%
egg production lower than control-fed hens ([4]; Example 5: CORT 9 days, week 5 after diet administration, p=0.007): 50%
egg production suppressed vs control-fed hens ([4]; Example 5: CORT 9 days, weeks 2 and 3 after diet administration): 60%
egg production ([4]; Example 5: CORT 9 days, weeks 6 to 11 after primary immunization): 53%
egg production lower than control-fed hens ([4]; Example 5: CORT 9 days, weeks 6 to 11 after primary immunization, p=0.001): 14%
Structure (SMILES): C[C@]12C[C@H](O)[C@H]3[C@@H](CCC4=CC(=O)CC[C@@]43C)[C@@H]1CC[C@@H]2C(=O)CO [CORT, corticosterone]
plasma CORT concentrations [1]: significant increase
overall effect of CORT on PBMC counts ([2]; Example 3: CORT 5 days beginning day 7 before immunization, p=0.82): no effect
PBMC count [2, 11]: 17,800 cells/μl blood
PBMC count as % of control-fed hens ([2]; Example 3: CORT 5 days, week 1 after diet administration, p=0.025): 49%
PBMC count ([2]; Example 3: CORT 5 days, week 2 after diet administration): 35,400 cells/μl blood
PBMC count ([2]; Example 4: CORT 30 mg/kg diet 6 days, week 1 after diet administration): 9,200 cells/μl blood
PBMC count as % of control-fed hens ([2]; Example 4: CORT 6 days, week 1 after diet administration, p<0.0001): 43%
PBMC count ([2]; Example 4: CORT 6 days, week 2): 12,900 cells/μl blood
PBMC count as % of control-fed hens ([2]; Example 4: CORT 6 days, week 2, p=0.001): 59%
PBMC count ([2]; Example 4: CORT 6 days, week 3, returned to control levels, p=0.57): 19,700 cells/μl blood
egg production ([3]; after 1 week of dietary CORT 20-40 mg/kg diet): completely suppressed
effect on egg production in laying hens ([3]; dietary CORT 30 mg/kg diet for 1 week): negatively affect
additional time out of production after removal of CORT ([3]; dietary CORT 20-40 mg/kg diet for 1 week): 9 to 12 days
serum antibody titer (Log2 titer) ([5]; Example 4: CORT 30 mg/kg diet for 6 days beginning on day 1 before primary immunization): 17.65 Log2 titer
fold higher serum antibody titer vs control hens ([5]; Example 4: CORT 6 days, p=0.008): 4.9 fold
effect of CORT on body weight (% initial BW) vs control-fed hens ([6]; Example 3: CORT 5 days, p=0.27): no effect
body weight higher than initial body weight [6, 11]: 11.4%
body weight higher than initial body weight ([6]; Example 3: CORT 5 days, week 2): 10.5%
body weight vs initial body weight ([6]; Example 3: CORT 5 days, week 5 after diet administration, p=0.57): not different from initial body weight
body weight higher than initial body weight ([6]; Example 4: CORT 6 days, weeks 1 to 3 after diet administration): 13.3%
number of circulating lymphocytes in chicken blood [7]: markedly decreased
mouse T-dependent antibody response to sheep erythrocytes [8]: increased
difference in antibody titer of egg yolks vs control-fed hens ([9]; Example 2: CORT 30 mg/kg diet for 2 days beginning on day 1 before primary immunization, weeks 3 to 6, p=0.24): no difference
antibody titer of egg yolks (Log2 titer) ([9]; Example 2: CORT 30 mg/kg diet for 2 days beginning on day 1 before primary immunization, weeks 3 to 6 after primary immunization): 15.52 Log2 titer
antibody titer of egg yolks (Log2 titer) ([9]; Example 3: CORT 30 mg/kg diet for 5 days beginning on day 7 before primary immunization, weeks 3 to 5 after primary immunization): 17.02 Log2 titer
difference in antibody titer of egg yolks vs control-fed hens ([9]; Example 3: CORT for 5 days beginning on day 7 before primary immunization, weeks 3 to 5, p=0.96): no difference
egg yolk antibody titer (Log2 titer) ([9]; Example 4: CORT 30 mg/kg diet for 6 days beginning on day 1 before primary immunization, weeks 3 to 5): 17.32 Log2 titer
egg yolk antibody titer (Log2 titer) ([9]; Example 4: CORT 6 days, entire study period weeks 3 to 9): 17.37 Log2 titer
fold higher egg yolk antibody titer vs control-fed hens ([9]; Example 4: CORT 6 days, weeks 3 to 5, p=0.006): 3.1 fold
fold increase in antibody titer of egg yolks vs control hens ([9]; Example 4: CORT 6 days, weeks 3 to 9, p=0.032): 1.8 fold
fold higher antibody titer of egg yolks vs control-fed hens ([9]; Example 5: CORT 9 days, weeks 3 to 10, p=0.00001): 3.0 fold
antibody titer of egg yolks (Log2 titer) ([9]; Example 5: dietary CORT for 9 days beginning on day 1 before primary immunization, weeks 3 to 10 after primary immunization): 16.50 Log2 titer
effect on body weight gain in broilers [10]: negatively affect
